Patent publication US20190076482A1, “ENHANCED ORGANOID FORMATION AND INTESTINAL STEM CELL RENEWAL” (THE JOHNS HOPKINS UNIVERSITY, priority 2016, published 2019)

Assays:
Hmga1 organoids = experiment: Wnt inhibitor treatment of Hmga1 organoids; assay type: cell-based, mouse
Text: (§1) To better define the role of Hmga1 in regulating Wnt signaling, we cultured Hmga1 organoids in the absence of the Wnt receptor agonist, R-spondin 1 (R-spo1), which is essential for organoid formation in this culture system. R-spo1 is secreted by intestinal stromal cells and binds to the Lgr5 receptor to activate Wnt signaling. The inventors discovered a dramatic difference in the response of Hmga1 organoids to the absence of R-spo1 as compared to the WT controls: Hmga1 organoids continued to survive and proliferate after 2 weeks, while the WT organoids lost their 3D structural organization and ultimately died by day 5 (FIG. 9). […] To further test the link between Hmga1 and Wnt, we treated organoids with the Wnt inhibitors, C59 and IWP-2, both of which block Wnt-mediated transcription and cell proliferation by inhibiting porcupine (PORCN), a protein required for Wnt palmitoylation, secretion, and biological activity. […] The blunted response of Hmga1 organoids to Wnt inhibition further highlights the ability of Hmga1 to amplify Wnt signaling to maintain and support ISCs.
Organoid culture and replating assay. Mouse organoids were established and maintained from isolated crypts of the proximal small intestine as described previously^1-7. […]

WT organoids = experiment: Wnt inhibitor treatment of WT control organoids; assay type: cell-based, mouse; settings: for bud formation: controls
Text: as §1
Organoid culture and replating assay. Mouse organoids were established and maintained from isolated crypts of the proximal small intestine as described previously^1-7. The basic culture medium (advanced Dulbecco's modified Eagle's medium/F12 supplemented with penicillin/streptomycin, 10 mmol/l HEPES, 13 Glutamax, 13 B27 [all from Life Technologies], and 1 mmol/l N-acetylcysteine [Sigma]) was supplemented with 50 ng/ml murine recombinant EGF (Peprotech), R-spondin 1 (1 μg/ml), and Noggin (10 ng/ml). Wnt inhibitors C59 and IWP-2 are commercially available (Abcam). Conditioned media was produced using HEK293T cells stably transfected with HA-mouse Rspo1-Fc (a gift from Calvin Kuo, Stanford University). Advanced DMEM/F12 supplemented with penicillin/streptomycin, 10 mmol/1 HEPES, and 13 Glutamax was conditioned for 1 week. For the replating assay, an equal number of organoids from each model were mechanically dispersed with a 10 mL pipet after 3-5 days in culture and replated using the conditions described above.

Cc1cc(-c2ccc(CC(=O)Nc3ccc(-c4cccnc4)cc3)cc2)ccn1 [C59] was tested, and the organoid survival (Hmga1 organoids; up to 2μM of C59 (FIG. 4f)) was “able to survive” and the organoid proliferation (WT organoids; WT controls, exposure to as little as 0.5 μM (FIG. 4f)) was “failed to proliferate”.
For Cc1ccc2nc(NC(=O)CSc3nc4c(c(=O)n3-c3ccccc3)SCC4)sc2c1 [IWP-2], the “organoid survival and bud formation” value (Hmga1 organoids; 1 μM of IWP-2 (FIG. 4f)) was “survive and form buds”, the bud formation (WT organoids; 0.5 μM (FIG. 4f)) was “few buds” and the bud formation (WT organoids; 1 μM IWP-2 (FIG. 4f)) was “no buds”.
